The target in assay [1] is T1, A2B adenosine receptor (Homo sapiens, UniProt P29275).
T1 construct: expressed in transfected cells; host or cells: HEK-293 (HEK-A2B)
T1 sequence (P29275 1-332): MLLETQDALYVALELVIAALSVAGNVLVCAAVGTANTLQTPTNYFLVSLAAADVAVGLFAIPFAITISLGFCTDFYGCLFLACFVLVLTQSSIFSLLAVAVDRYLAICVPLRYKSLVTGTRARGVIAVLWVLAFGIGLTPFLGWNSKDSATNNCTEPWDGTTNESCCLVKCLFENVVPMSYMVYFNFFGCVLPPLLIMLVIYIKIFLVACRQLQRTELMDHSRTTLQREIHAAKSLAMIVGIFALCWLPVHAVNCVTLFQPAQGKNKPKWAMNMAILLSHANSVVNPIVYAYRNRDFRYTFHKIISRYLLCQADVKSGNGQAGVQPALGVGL
The assay can be described thus: cAMP assay for adenosine receptor (HTRF), HEK-A2B. The settings on record: HEK-A2B cells, agonist 70 nM NECA, read-out: A2B Functional Ki. The class given is cell-based. The procedure: (§1) cAMP Assay for Adenosine Receptor.
(§2) The functional activity of test compounds on A2A and A2B adenosine receptors and selectivity over A1 adenosine was determined using HTRF based cAMP assay (Cisbio). Briefly, overnight seeded cultures (HEK-A1, HEK-A2A, HEK-A2B) were treated with 1U/ml ADA for 90 minutes at 37° C. and 5% CO2. Cell suspensions were treated with increasing concentrations of test compounds for 15 minutes followed by treatment with agonists for 15 minutes (1 nM CPA for HEK-A1 and 70 nM NECA for HEK-A2B) or 30 min (10 nM CGS-21680 for HEK-A2A) at room temperature with continuous mixing in incomplete DMEM supplemented with 1U/ml ADA. Rolipram (20 μM) was included in the assay for A1 and A2A adenosine receptors. For functional activity of HEK-A1, cell suspensions were further treated with forskolin for 30 minutes at room temperature with constant mixing. cAMP levels were quantified using a Flex Station III (Molecular Devices) at an excitation maximum of 313 nm and emission maxima of 620 nm and 665 nm. Data was analyzed using GraphPad Prism to generate IC50 and Ki. The biological activity data is provided in the Table below. <10 nM are represented as ++++, 10-30 nM as +++, 30-100 nM ++ and the K, value >100 nM as +.
In general terms: Changes in cAMP serve as a functional read-out for many G protein-coupled receptors.

Assay [2] concerns the target T2, A2A adenosine receptor (Homo sapiens, UniProt P29274).
T2 construct: expressed in transfected cells; host or cells: HEK-293 (HEK-A2A)
The assay can be described thus: cAMP assay for adenosine receptor (HTRF), HEK-A2A. It counts as cell-based. The settings on record: HEK-A2A cells, agonist 10 nM CGS-21680, Rolipram 20 μM, read-out: A2A Functional Ki. The procedure:
as §1, §2

Data on 27 compounds can be found in patent US11981679B2, “Tricyclic compounds, compositions and medicinal applications thereof” (IMPETIS BIOSCIENCES LTD., priority 2018, dated 2024).

Each structure is given as a SMILES string.

T2 sequence (P29274 whole entry): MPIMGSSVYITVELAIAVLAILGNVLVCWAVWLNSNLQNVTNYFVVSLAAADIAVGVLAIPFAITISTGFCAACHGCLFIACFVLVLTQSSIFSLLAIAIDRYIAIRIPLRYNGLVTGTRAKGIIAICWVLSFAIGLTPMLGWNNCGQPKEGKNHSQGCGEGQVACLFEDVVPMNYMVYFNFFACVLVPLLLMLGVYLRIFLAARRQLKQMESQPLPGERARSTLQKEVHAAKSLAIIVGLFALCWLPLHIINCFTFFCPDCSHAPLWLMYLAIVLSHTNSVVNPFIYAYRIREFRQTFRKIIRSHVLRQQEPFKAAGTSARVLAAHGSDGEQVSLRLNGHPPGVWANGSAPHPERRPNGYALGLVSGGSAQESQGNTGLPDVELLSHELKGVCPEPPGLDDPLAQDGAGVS

On to `CCCn1c(=O)c2[nH]c(-c3cnn(Cc4cccc(C(F)(F)F)c4)c3)nc2n2ccnc12` [Example A1, 5-propyl-2-[1-[[3-(trifluoromethyl)phenyl]methyl]pyrazol-4-yl]-3H-imidazo[2,1-b]purin-4-one], for which the Ki in assay [1] and in assay [2] was less than 10 nM each time.

Turning to `Cn1c(=O)c2[nH]c(-c3cnn(Cc4cccc(C(F)(F)F)c4)c3)nc2n2ccnc12` [Example A3, 5-methyl-2-[1-[[3-(trifluoromethyl)phenyl]methyl]pyrazol-4-yl]-3H-imidazo[2,1-b]purin-4-one], the results for the Ki in assay [1] and in assay [2] were less than 10 nM and 10 to 30 nM, respectively.

Take `CCCn1c(=O)c2[nH]c(-c3cnn(CCc4cccc(F)c4)c3)nc2n2ccnc12` [Example A5, 2-[1-[2-(3-fluorophenyl)ethyl]pyrazol-4-yl]-5-propyl-3H-imidazo[2,1-b]purin-4-one]: in assay [2], the Ki was in the range of 30 to 100 nM.

Regarding `CCCn1c(=O)c2[nH]c(-c3cnn(C)c3)nc2n2ccnc12` [Example A6, 2-(1-methylpyrazol-4-yl)-5-propyl-3H-imidazo[2,1-b]purin-4-one], the Ki in assay [2] was greater than 100 nM.

`CCCn1c(=O)c2[nH]c(-c3cnn(C(C)(C)CC)c3)nc2n2ccnc12` [Example A7, 2-[1-(1,1-dimethylpropyl)pyrazol-4-yl]-5-propyl-3H-imidazo[2,1-b]purin-4-one]: the inhibition constant Ki in assay [1] and in assay [2] was less than 10 nM each time.

For `CCCn1c(=O)c2[nH]c(-c3cnn(CC#Cc4cccc(C(=O)OCC)c4)c3)nc2n2ccnc12` [Example B2, Ethyl 3-[3-[4-(4-oxo-5-propyl-3H-imidazo[2,1-b]purin-2-yl)pyrazol-1-yl]prop-1-ynyl]benzoate], the Ki in assay [1] is less than 10 nM; in assay [2], 10 to 30 nM.

With `CCCn1c(=O)c2[nH]c(-c3cnn(CC#Cc4cccc(OC(F)(F)F)c4)c3)nc2n2ccnc12` [Example B3, 5-propyl-2-[1-[3-[3-(trifluoromethoxy)phenyl]prop-2-ynyl]pyrazol-4-yl]-3H-imidazo[2,1-b]purin-4-one], the figures for the Ki in assay [1] and in assay [2] were less than 10 nM and 10 to 30 nM, respectively.

For the compound `CCCn1c(=O)c2[nH]c(-c3cnn(CC#Cc4cc(C(=O)OCC)ccc4C)c3)nc2n2ccnc12` [Example B6, Ethyl 4-methyl-3-[3-[4-(4-oxo-5-propyl-3H-imidazo[2,1-b]purin-2-yl)pyrazol-1-yl]prop-1-ynyl]benzoate], the Ki in assay [1] was less than 10 nM; in assay [2], 30 to 100 nM.

Regarding `CCCn1c(=O)c2[nH]c(-c3cnn(Cc4cccc(C#N)c4)c3)nc2n2ccnc12` [Example B7, 3-[[4-(4-oxo-5-propyl-3H-imidazo[2,1-b]purin-2-yl)pyrazol-1-yl]methyl]benzonitrile], the Ki in assay [1] and in assay [2] was less than 10 nM each time.

As to `CCCn1c(=O)c2[nH]c(-c3cnn(C(C)C)c3)nc2n2ccnc12` [Example B8, 2-(1-isopropylpyrazol-4-yl)-5-propyl-3H-imidazo[2,1-b]purin-4-one], the figures for the Ki in assay [1] and in assay [2] were less than 10 nM and 10 to 30 nM, respectively.

Turning to `CCCCn1cc(-c2nc3c([nH]2)c(=O)n(CCC)c2nccn32)cn1` [Example B9, 2-(1-butylpyrazol-4-yl)-5-propyl-3H-imidazo[2,1-b]purin-4-one], the results for the inhibition constant (Ki) in assay [1] and in assay [2] were less than 10 nM and 10 to 30 nM, respectively.

With `CCCn1c(=O)c2[nH]c(-c3cnn(CC)c3)nc2n2ccnc12` [Example B10, 2-(1-ethylpyrazol-4-yl)-5-propyl-3H-imidazo[2,1-b]purin-4-one], the Ki in assay [1] was less than 10 nM; in assay [2], 10 to 30 nM.

Turning to `CCCn1c(=O)c2[nH]c(-c3cnn(CCOC)c3)nc2n2ccnc12` [Example B11, 2-[1-(2-methoxyethyl)pyrazol-4-yl]-5-propyl-3H-imidazo[2,1-b]purin-4-one], the values for the Ki in assay [1] and in assay [2] were 10 to 30 nM and greater than 100 nM, respectively.

For `CCCn1c(=O)c2[nH]c(-c3cnn(CCN(C)C)c3)nc2n2ccnc12` [Example B12, 2-[1-(2-dimethylaminoethyl)pyrazol-4-yl]-5-propyl-3H-imidazo[2,1-b]purin-4-one], the figures for the inhibitory constant (Ki) in assay [1] and in assay [2] were 10 to 30 nM and greater than 100 nM, respectively.

Regarding `CCCn1cc(-c2nc3c([nH]2)c(=O)n(CCC)c2nccn32)cn1` [Example B13, 5-propyl-2-(1-propylpyrazol-4-yl)-3H-imidazo[2,1-b]purin-4-one], the Ki in assay [1] and in assay [2] was less than 10 nM each time.

In the case of `CCCn1c(=O)c2[nH]c(-c3cnn(CC(=O)N(C)C)c3)nc2n2ccnc12` [Example B14, N,N-dimethyl-2-[4-(4-oxo-5-propyl-3H-imidazo[2,1-b]purin-2-yl)pyrazol-1-yl]acetamide], the results for the Ki in assay [1] and in assay [2] were less than 10 nM and greater than 100 nM, respectively.

For the compound `CCCn1c(=O)c2[nH]c(-c3cnn(CC4CCC4)c3)nc2n2ccnc12` [Example B16, 2-[1-(cyclobutylmethyl)pyrazol-4-yl]-5-propyl-3H-imidazo[2,1-b]purin-4-one], the Ki in assay [1] and in assay [2] was less than 10 nM in each case.

For the compound `CCCn1c(=O)c2[nH]c(-c3cnn(CC(C)C)c3)nc2n2ccnc12` [Example B17, 2-(1-isobutylpyrazol-4-yl)-5-propyl-3H-imidazo[2,1-b]purin-4-one], the Ki in assay [1] was less than 10 nM; in assay [2] it was 10 to 30 nM.

`CCCn1c(=O)c2[nH]c(-c3cnn(CC(C)(C)C)c3)nc2n2ccnc12` [Example B19, 2-[1-(2,2-dimethylpropyl)pyrazol-4-yl]-5-propyl-3H-imidazo[2,1-b]purin-4-one]: the Ki in assay [1] and in assay [2] was less than 10 nM in each case.

Turning to `CCCn1c(=O)c2[nH]c(-c3cnn(C(C)CC)c3)nc2n2ccnc12` (stereo not shown) [Example B20, 5-propyl-2-(1-sec-butylpyrazol-4-yl)-3H-imidazo[2,1-b]purin-4-one], the Ki in assay [1] and in assay [2] was less than 10 nM throughout.

For `CCCn1c(=O)c2[nH]c(-c3cnn(CC4CC(=O)N(c5cncc(C(F)(F)F)c5)C4)c3)nc2n2ccnc12` (stereo not shown) [Example C2, 2-[1-[[5-oxo-1-[5-(trifluoromethyl)-3-pyridyl]pyrrolidin-3-yl]methyl]pyrazol-4-yl]-5-propyl-3H-imidazo[2,1-b]purin-4-one], the Ki in assay [1] is less than 10 nM; in assay [2], 30 to 100 nM.

`CCCn1c(=O)c2[nH]c(-c3cnn(CCN4CCCCC4)c3)nc2n2ccnc12` [Example D1, 2-[1-[2-(1-piperidyl)ethyl]pyrazol-4-yl]-5-propyl-3H-imidazo[2,1-b]purin-4-one]: the Ki was less than 10 nM in assay [1] and 30 to 100 nM in assay [2].

Take `CCCn1c(=O)c2[nH]c(-c3cnn(Cc4cccc(CO)c4)c3)nc2n2ccnc12` [Example E1, 2-[1-[[3-(hydroxymethyl)phenyl]methyl]pyrazol-4-yl]-5-propyl-3H-imidazo[2,1-b]purin-4-one]: the inhibitory constant (Ki) in assay [1] and in assay [2] was less than 10 nM in each case.

Turning to `CCCn1c(=O)c2[nH]c(-c3cnn(Cc4cccc(C(C)(C)O)c4)c3)nc2n2ccnc12` [Example F1, 2-[1-[[3-(1-hydroxy-1-methyl-ethyl)phenyl]methyl]pyrazol-4-yl]-5-propyl-3H-imidazo[2,1-b]purin-4-one], the Ki in assay [1] is less than 10 nM; in assay [2], 10 to 30 nM.

For `CCCn1c(=O)c2[nH]c(-c3cnn(Cc4cccc(C(=O)O)c4)c3)nc2n2ccnc12` [Example G1, 3-[[4-(4-oxo-5-propyl-3H-imidazo[2,1-b]purin-2-yl)pyrazol-1-yl]methyl]benzoic Acid], the Ki is less than 10 nM in assay [1] and 10 to 30 nM in assay [2].

Turning to `CCCn1c(=O)c2[nH]c(-c3cnn(CC(=O)O)c3)nc2n2ccnc12` [Example H1, 2-[4-(4-oxo-5-propyl-3H-imidazo[2,1-b]purin-2-yl)pyrazol-1-yl]acetic acid], the Ki in assay [1] is 30 to 100 nM; in assay [2] it was greater than 100 nM.

Regarding `CCCn1c(=O)c2[nH]c(-c3cnn(CC(O)CO)c3)nc2n2ccnc12` (stereo not shown) [Example J1, 2-[1-(2,3-dihydroxypropyl)pyrazol-4-yl]-5-propyl-3H-imidazo[2,1-b]purin-4-one], the Ki in assay [1] and in assay [2] was 30 to 100 nM in each case.

By Ki is commonly meant the dissociation constant of the complex between target and ligand, obtained from inhibition or displacement.
